Data from US7834148B2, “Protein phosphorylation imaging systems, methods of making phosphorylation imaging systems, and methods of use thereof” (Stanford University, priority 2006, dated 2010).

Tested on: Akt kinase activity
Test: Bioluminescence imaging of nude mice bearing 293T/AS1T and 293T/AS1A xenografts
Format: in vivo
Conditions: 30 mg/kg
Experimental: FIGS. 10a-10b illustrate the inhibition of Akt kinase activity by perifosine in living mice. FIG. 10a illustrates the efficacy of perifosine in inhibition of Akt kinase activity in living subjects was determined by bioluminescence imaging of nude mice bearing 293T/AS1A and 293T/AS1T xenografts. Mice were treated with 30 mg/kg of perifosine or carrier control at time 0 hour and re-imaged at 6, 15, 27 and 39 hours upon i.p. injection of D-Luciferin. FIG. 10b illustrate the max photons at each time point was normalized to that of carrier control treated mice and expressed as average normalized max photons+/−S.E.M. for each xenograft. It should be noted that p<0.05 relative to AS1A xenografts.
To determine if sufficient sensitivity for indirect imaging of Akt kinase activity has been achieved in living subjects, 293T/AS1T and 293T/AS1A cells were implanted at the lower left and right of nude mice for xenograft establishment. Since the bioluminescence signal from untreated 293T/AS1A cells was about 10-fold higher than that of 293T/AS1T cells in cell culture studies, 10% 293T/AS1A cells were mixed with 90% untransfected 293T cells (no FL activity) prior to implantation to normalize the signals to that of 293T/AS1T cells. Complemented FL activity in living mice was determined by bioluminescence imaging using a cooled coupled charged device (CCD) camera upon i.p. injection of D-luciferin. […] Perifosine was chosen over LY for these animal experiments since perifosine is water soluble and currently being evaluated in clinical trials. […] 6 hours of perifosine treatment led of a 20% decrease in complemented FL activity in 293T/AS1A but a 60% increase in complemented FL activity in 293T/AS1T relative to carrier control treated mice (p<0.05), corresponding to the 2-fold difference between AS1T and AS1A (FIG. 10b).
All of the animal handling was performed in accordance with Stanford University Animal Research Committee guidelines, Mice were gas anesthetized using isofluorane (2% isofluorane in 100% oxygen) during all injection and imaging procedures. Mice were imaged using a cooled CCD camera (Xenogen IVIS29; Xenogen Corp., Alameda, Calif.). […] To quantify the measured light, regions of interest were drawn over the area of the implanted cells, and the maximum photons/s/cm^2/steradian (sr) were obtained as validated previously. […] Max photons at time 6, 12 and 24 hours were normalized to that of time 0 hr for each individual mouse, and expressed as normalized average max photons±S.E.M.

**Q.** CCCCCCCCCCCCCCCCCCOP(=O)([O-])OC1CC[N+](C)(C)CC1 [perifosine] was tested. Which “decrease in complemented FL activity” value (293T/AS1A xenografts, 6 hours, relative to carrier control treated mice) did it give?
**A.** 20%

**Q.** And the “complemented FL activity at later time points” value (293T/AS1T and 293T/AS1A xenografts, later than 6 hours, relative to carrier control, p>0.05)?
**A.** no significant difference

**Q.** What about the “increase in complemented FL activity” value (293T/AS1T xenografts, 6 hours, relative to carrier control treated mice, p<0.05) of the same compound?
**A.** 60%

**Q.** What about the “difference between AS1T and AS1A” value (xenografts, 6 hours) of the same compound?
**A.** 2 fold
